Drawing on the Bradley open melting point set (2014), this text covers melting point for 89 compounds.

Values joined by “and” are separate entries in the source; they are usually repeats but may differ in a detail not shown here. Identical values can stand only once.

What is called melting point is the temperature of the solid-liquid transition. In turn, `CNC(=C[N+](=O)[O-])NCCSCc1ccc(CN(C)C)o1` [ranitidine] had a melting point of 69 °C.

As for `C=C1/C(=N/Nc2cc(Cl)c(Cl)cc2Cl)C(=O)N(C)C(=O)N1C`, the melting point was found to be 244 °C.

Turning to `CC(C)[C@H](NC(=O)OC(C)(C)C)C(=O)O` [N-boc-L-valine], the melting point amounted to 79 °C.

`C1C2CC3CC1CC(C2)C3` [adamantane] registered a melting point of 268 °C.

With `CC(=O)OCC(OC(C)=O)C(OC(C)=O)C(OC(C)=O)C(OC(C)=O)C(=O)CBr` (centres undefined) [3,4,5,6,7-penta-O-acetyl-1-bromo-1-deoxyhept-2-ulose], the melting point came out at 124 °C.

Take `O=C(O)c1cc(Cl)cc(Cl)c1O` [3,5-dichlorosalicylic acid]: the melting point was determined as 224 °C.

Take `CC1=C(C(=O)O)N2C(=O)[C@@H](NC(=O)[C@H](N)C3=CCC=CC3)[C@H]2SC1` [Cefradine]: the melting point was found to be 140 °C.

In the case of `O=C(O)/C(=C/c1ccccc1[N+](=O)[O-])c1ccccc1F` [(E)-2-(2-Fluorophenyl)-3-(2-nitrophenyl)propenoic acid], the melting point came to 212 °C.

`CC(C)(C)OC(=O)Nc1ccccc1B(O)O` [2-(boc-amino)benzeneboronic acid]: the melting point amounted to 124 °C.

In the case of `O=C(O)c1ccc(CO)cc1` [p-hydroxymethyl_benzoic_acid], the melting point stood at 182 °C.

In the case of `C=CC=O` [acrolein], the melting point was -87 °C.

Turning to `CC1(C)CCCC(C)(C)N1` [2,2,6,6-tetramethylpiperidine], the melting point is -59 °C.

Turning to `CCCC(=O)O` [butanoic_acid], the melting point is -5 °C.

As to `COC(=O)c1cc(Cl)ccc1[N+](=O)[O-]` [methyl 5-chloro-2-nitrobenzoate], the melting point turned out to be 49 °C.

The compound `COc1cc(C=O)cc(OC)c1OC` [3,4,5-trimethoxybenzaldehyde] showed a melting point of 75 °C.

In turn, `C1=CCCC1` [Cyclopentene] displayed a melting point of -135 °C.

Compound `Cc1ncc([N+](=O)[O-])n1C` [Dimetridazole] yielded a melting point of 140 °C.

The compound `COc1ccccc1-c1nnn[nH]1` [5-(2-methoxyphenyl)-1h-tetrazole] came in with a melting point of 155 °C.

`[O-][n+]1c(Cl)cccc1Cl` [2,6-dichloropyridine n-oxide]: the melting point is 138 °C.

The compound `CCCC(=O)O` [butyric acid] came in with a melting point of -5.7 °C.

`c1c[nH]nn1` [1,2,3-triazole]: the melting point was 24 °C.

`CCCCCOc1ccc(/N=N/c2ccc(CCCC)cc2)cc1` [(E)-1-(4-butylphenyl)-2-[4-(pentyloxy)phenyl]diazene] had a melting point of 42 °C.

On to `Cc1ccccc1C(=O)O` [o-toluic_acid], for which the melting point amounted to 105 °C.

`c1ccc(CCCc2ccccc2)cc1` [1,3-diphenylpropane] displayed a melting point of -21 °C.

On to `N#Cc1ccc(C2CCCc3cncn32)cc1` (centres undefined) [fadrozole], for which the melting point is 117 °C.

`O=C(O)[C@@H]1[C@@H]2CC[C@@H](C2)[C@@H]1C(=O)O` [(1R,2R,3S,4S)-Bicyclo[2.2.1]heptane-2,3-dicarboxylic acid] registered a melting point of 160 °C.

Consider `CN(C)c1ccc(C=O)cc1` [p-dimethylaminobenzaldehyde], for which the melting point amounted to 75 °C.

The compound `O=C(CCl)Nc1cccc([N+](=O)[O-])c1` [2-chloro-3'-nitroacetanilide] displayed a melting point of 114 °C.

`CC(=O)N[C@@H](Cc1ccc(O)cc1)C(=O)O` [N-acetyl-l-tyrosine] came in with a melting point of 153 °C.

On to `c1ccc2cc3cc4ccccc4cc3cc2c1` [2,3-Benzanthracene, Naphthacene], for which the melting point is 341 °C.

In turn, `O=[O+][O-]` [Trioxid-2-en-2-ium-1-ide] had a melting point of -193 °C.

Compound `Nc1cccc(F)c1C(=O)O` [2-amino-6-fluorobenzoic acid] gave a melting point of 166 °C.

The compound `CN(C)C(=O)Nc1ccc(Cl)c(Cl)c1` [Diuron] came in with a melting point of 159 °C.

As to `Cc1cccc(-c2nnn[nH]2)c1` [5-(3-methylphenyl)-1h-tetrazole], the melting point turned out to be 145 °C.

Compound `N#CC(=Cc1cccc(O)c1)C1N=c2ccccc2=N1` came in with a melting point of 300 °C.

`CCC(Br)CBr` (centres undefined) [1,2-dibromobutane] yielded a melting point of -65 °C.

With `C=C[C@H]1CN2CC[C@H]1C[C@@H]2[C@@H](O)c1ccnc2ccc(OC)cc12` [Quinidine], the melting point is 174 °C.

Compound `Cc1ccccc1C(=O)O` [o-toluic acid] gave a melting point of 105 °C.

On to `O=C1CCCCC1` [cyclohexanone], for which the melting point was -29 °C and -27.9 °C.

As to `Cc1cc(C=O)cc(C)c1O` [4-hydroxy-3,5-dimethylbenzaldehyde], the melting point was 114 °C.

For the compound `C=Cc1ccc(Cl)cc1` [4-chlorostyrene], the melting point was -16 °C.

For the compound `Cc1cc(=O)n(-c2ccccc2)n1C` [antipyrine], the melting point was 112 °C.

For `O=Cc1cccc2c1CCOC2=O` [erythrocentaurin], the melting point stood at 140 °C.

With `O=[N+]([O-])c1cc(Cl)ccc1Cl` [2,5-dichloronitrobenzene], the melting point worked out at 56 °C.

`CCCCOc1ccc(NC(=O)C(F)(F)C(F)(F)C(F)(F)C(F)(F)C(F)(F)C(F)(F)C(F)(F)C(F)(F)F)cc1`: the melting point stood at 137 °C.

Regarding `CC(C)(C)c1cc(C(=Nc2ccccc2)Nc2ccccc2)cc(C(C)(C)C)c1O` [3,5-Di-tert-butyl-4-hydroxy-N,N'-diphenyl-benzamidine], the melting point was found to be 131 °C.

On to `CCC(C)(C)c1ccc(OCC(=O)O)c(C(C)(C)CC)c1` [2,4-di(tert-pentyl)phenoxyacetic acid], for which the melting point was 126 °C.

The compound `O=C1C=CCCC1` [2-cyclohexene-1-one] showed a melting point of -53 °C.

For `Clc1cccc(-c2ccccc2)c1` [3-chlorobiphenyl], the melting point was 18 °C.

For `Cc1ccc(C)n1-c1ccc(F)cc1` [OSM-S-01], the melting point was determined as 48.5 °C.

The compound `NCCNCCN` [N-(2-Aminoethyl)ethane-1,2-diamine] gave a melting point of -35 °C.

With `Oc1ccc(Oc2ccccc2)cc1` [4-phenoxyphenol], the melting point is 84 °C.

Take `CC(=O)C(C)(C)C` [3,3-Dimethylbutan-2-one]: the melting point was -52.5 °C.

For `CCCCN1CCCCC1C(=O)Nc1c(C)cccc1C` (centres undefined) [bupivacaine], the melting point is 107 °C.

`CCCc1cc(Br)c(N)c(Br)c1` [2,6-dibromo-4-n-propylaniline] displayed a melting point of 56 °C.

Regarding `CNC=O` [N-methylformamide], the melting point was -4 °C.

On to `O=[N+]([O-])c1ccccc1/C=C(/Cl)c1ccccn1` [2-[(E)-1-chloro-2-(2-nitrophenyl)ethenyl]pyridine], for which the melting point worked out at 61 °C.

`CC(C)=O` [acetone] came in with a melting point of -94 °C.

`CC1=C(C(=O)OCc2ccccc2)C(c2ccc3c(c2)OCO3)NC(=O)N1` (centres undefined) registered a melting point of 159 °C.

In the case of `COc1cc(C(C)=O)cc(OC)c1O` [3',5'-dimethoxy-4'-hydroxyacetophenone], the melting point came to 119 °C.

As to `Cc1ccc(C)c(Br)c1` [2-bromo-p-xylene], the melting point turned out to be 10 °C.

In turn, `CC(=O)Nc1c(Br)cc(N)cc1Br` [4'-amino-2',6'-dibromoacetanilide] showed a melting point of 248 °C.

Regarding `c1ccc2c(c1)ccc1ccccc12` [Phenanthrene], the melting point was found to be 101 °C.

As for `O=C(O)C1CCCCC1` [cyclohexanecarboxylic acid], the melting point amounted to 31 °C.

As to `Cc1cc(C)nc(NS(=O)(=O)c2ccc(N)cc2)n1` [sulfamethazine], the melting point was 200 °C.

`COC(=O)NN` [methyl carbazate] returned a melting point of 72 °C.

In the case of `C1=CC2CCC1C2` [norbornene], the melting point was 46 °C.

Compound `CC(=O)c1cccc([N+](=O)[O-])c1` [3'-nitroacetophenone] gave a melting point of 78 °C.

For the compound `CCOC(=O)C=C1SC(N2CCCCC2)C(=O)N1CC` (centres undefined), the melting point was determined as 86 °C.

In turn, `CS(=O)(=O)n1ccnc1` [1-(methylsulfonyl)imidazole] returned a melting point of 89 °C.

For the compound `NC(=O)NCCC[C@H](N)C(=O)O` [L-Citrulline], the melting point amounted to 214 °C.

As for `O=C(OCCOCn1c2N\C(=N/C(=O)c2nc1)N)C` [O-Acetylacyclovir], the melting point was 242 °C.

`Clc1ccc(-c2ccc(Cl)cc2)cc1` [PCB-15] returned a melting point of 149 °C.

In the case of `NC1(C(=O)O)CCCC1` [Cycloleucine], the melting point is 330 °C.

The compound `COC(=O)c1cccc(Br)c1` [methyl_3-bromobenzoate] registered a melting point of 33 °C.

The compound `O=C1c2ccccc2C(C2=CCCCC2)N1Cc1ccccc1` (centres undefined) [2-Benzyl-3-cyclohexenylisoindolin-1-one] displayed a melting point of 110 °C.

Compound `BrCc1nc2ccccc2s1` [2-(bromomethyl)benzothiazole] gave a melting point of 48 °C.

`CCOC(=O)CC(C)=O` [ethyl acetoacetate] showed a melting point of -43 °C.

`C=CCN` [allylamine] yielded a melting point of -88 °C.

`COC(=O)c1ccc([N+](=O)[O-])cc1Cl` [methyl 2-chloro-4-nitrobenzoate]: the melting point was found to be 76 °C.

Compound `OCC(F)F` [2,2-difluoroethanol] had a melting point of -28 °C.

In turn, `O=c1cc[nH]c(=O)[nH]1` [Uracil] returned a melting point of 330 °C.

The compound `C[C@@H]1O[C@@H](O[C@H]2C[C@@H](O)[C@]3(CO)[C@H]4[C@H](O)C[C@]5(C)[C@@H](C6=CC(=O)OC6)CC[C@]5(O)[C@@H]4CC[C@]3(O)C2)[C@H](O)[C@H](O)[C@H]1O` [Ouabain] came in with a melting point of 200 °C.

Turning to `CC(C)(C)C#N` [trimethylacetonitrile], the melting point was determined as 17 °C.

In the case of `c1ccc2c(c1)Sc1ccccc1S2` [Thianthrene], the melting point turned out to be 159 °C.

With `COC(=O)[C@H](Cc1ccccc1)NC(=O)[C@@H](N)CC(=O)O` [Methyl L-alpha-aspartyl-L-phenylalaninate], the melting point was found to be 249 °C.

`COc1cc(/C=C/C(=O)CC(=O)/C=C/c2ccc(O)c(OC)c2)ccc1O` had a melting point of 180 °C.

As for `Nc1ccc(Oc2ccccc2)cc1` [4-phenoxyaniline], the melting point came to 84 °C.

`CCCCOCCOCCOC(C)=O` [2-(2-n-butoxyethoxy)ethyl acetate] displayed a melting point of -32 °C.
